Source: ChEMBL document CHEMBL5614458, “Benign-by-Design SAHA Analogues for Human and Animal Vector-Borne Parasitic Diseases” (ACS Med Chem Lett, 2024)
Activity calls are given as the source filed them. The rule behind the calls is not given here.

Tests used:
[1] = Cytotoxicity against mouse L929 cells incubated for 96 hrs by Alamar Blue assay; assay type: toxicity, cell-based; conditions: read-out: LC50
Trypanosoma cruzi = assay: Antiparasitic activity against Trypanosoma cruzi Tulahuen intracellular forms infected in mouse L929 cells incubated for 96 hrs by spectrophotometery; assay type: functional, organism-based; conditions: L929, 96 h
HepG2 [2] = assay: Cytotoxicity against human HepG2 cells assessed as cell viability at 10 uM incubated for 24 hrs by MTT assay; assay type: toxicity, cell-based; conditions: hepg2, 24 h
Leishmania mexicana = assay: Antiparasitic activity against Leishmania mexicana Cas9 promastigotes incubated for 48 hrs by Resazurin assay; assay type: functional, organism-based; conditions: Cas9, 48 h
Trypanosoma brucei = assay: microbe, parasite or virus in culture; assay type: functional, organism-based; conditions: Lister 427WT, 48 h
Description: Antiparasitic activity against Trypanosoma brucei Lister 427WT bloodstream trypomastigotes incubated for 48 hrs by Resazurin assay

IMR-32 = assay: Cytotoxicity against human IMR-32 cells assessed as cell viability at 10 uM incubated for 24 hrs by MTT assay; assay type: toxicity, cell-based; conditions: imr-32, 24 h
Leishmania amazonensis = assay: Antiparasitic activity against Leishmania amazonensis MHOM/BR/77/LTB0016 amastigotes infected in BALB/c mouse incubated for 48 hrs by Alamar Blue assay; assay type: functional, organism-based; conditions: MHOM/BR/77/LTB0016, 48 h
[3] = target: T1, Histone deacetylase (Homo sapiens) (UniProt Q13547+O15379+Q9UBN7+Q92769+Q9UQL6+Q8WUI4+Q9BY41+Q96DB2+P56524+Q9UKV0+Q969S8); assay: Inhibition of HDAC in human MET5A cells transfected with Rluc-Brd/YFP-fused histone H3 by BRET assay; assay type: cell-based; conditions: dose 0.1-10 µM
[4] = target: T1, Histone deacetylase (Homo sapiens); assay: Inhibition of HDAC in human MET5A cells transfected with Rluc-Brd/YFP-fused histone H3 at 0.1 to 10 uM by BRET assay; assay type: cell-based; conditions: dose 0.1-10 µM
HepG2 [5] = assay: Cytotoxicity against human HepG2 cells assessed as reduction in cell viability at 10 uM incubated for 24 hrs by MTT assay relative to control; assay type: toxicity, cell-based; conditions: hepg2, 24 h
[6] = target: T2, Protein deacetylase HDAC6 (Homo sapiens, UniProt Q9UBN7); assay: Inhibition of HDAC6 (unknown origin) using RHKK(Ac)AMC as substrate
T2 sequence (Q9UBN7 whole entry): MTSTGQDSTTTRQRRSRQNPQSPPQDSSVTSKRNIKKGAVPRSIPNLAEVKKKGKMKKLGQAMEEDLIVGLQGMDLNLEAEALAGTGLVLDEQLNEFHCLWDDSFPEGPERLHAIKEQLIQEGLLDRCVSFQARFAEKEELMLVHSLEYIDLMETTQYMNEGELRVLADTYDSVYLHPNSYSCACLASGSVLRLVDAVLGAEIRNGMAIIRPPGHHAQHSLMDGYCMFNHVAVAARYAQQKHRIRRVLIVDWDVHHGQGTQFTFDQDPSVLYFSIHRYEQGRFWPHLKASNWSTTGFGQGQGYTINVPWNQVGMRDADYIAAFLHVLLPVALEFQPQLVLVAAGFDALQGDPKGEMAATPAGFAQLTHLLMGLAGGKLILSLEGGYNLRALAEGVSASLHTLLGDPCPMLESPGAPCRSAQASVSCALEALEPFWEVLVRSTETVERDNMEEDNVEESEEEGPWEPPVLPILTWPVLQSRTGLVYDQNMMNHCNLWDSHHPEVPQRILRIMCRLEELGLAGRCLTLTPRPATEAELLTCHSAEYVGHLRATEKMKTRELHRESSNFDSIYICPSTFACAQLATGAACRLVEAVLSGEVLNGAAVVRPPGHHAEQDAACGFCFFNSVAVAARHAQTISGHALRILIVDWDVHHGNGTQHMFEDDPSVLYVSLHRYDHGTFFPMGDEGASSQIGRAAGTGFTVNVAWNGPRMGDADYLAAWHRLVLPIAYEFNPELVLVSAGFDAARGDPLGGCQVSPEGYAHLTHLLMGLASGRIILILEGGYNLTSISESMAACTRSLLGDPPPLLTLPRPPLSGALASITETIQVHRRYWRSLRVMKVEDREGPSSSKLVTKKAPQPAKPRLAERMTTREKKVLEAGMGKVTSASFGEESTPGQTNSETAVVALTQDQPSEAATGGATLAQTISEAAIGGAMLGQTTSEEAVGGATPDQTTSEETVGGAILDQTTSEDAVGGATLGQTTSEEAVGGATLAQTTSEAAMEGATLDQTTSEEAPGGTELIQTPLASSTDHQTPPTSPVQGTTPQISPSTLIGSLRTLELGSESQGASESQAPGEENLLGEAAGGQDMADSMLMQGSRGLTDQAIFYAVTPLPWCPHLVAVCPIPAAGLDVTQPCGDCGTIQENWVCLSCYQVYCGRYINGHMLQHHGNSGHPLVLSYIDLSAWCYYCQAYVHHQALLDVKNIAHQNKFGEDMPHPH

Compound	CC50 at 96 h [1] [µM]	EC50 (Trypanosoma cruzi) [µM]	Activity (HepG2 [2])	EC50 (Leishmania mexicana) [µM]	EC50 (Trypanosoma brucei) [µM]	Activity (IMR-32)	EC50 (Leishmania amazonensis) [µM]	inhibition [3]	inhibition [4]	Activity (HepG2 [5]) [%]	IC50 [6] [µM]
O=C(CCCCCCCCCCCc1cccc(OCc2ccccc2)c1)NO	90	> 10	Non-Toxic	69	4.8	Non-Toxic	14.5	Dose-Dependent Effect			
O=C(CCCCCCCCCCCc1cccc(OC(=O)c2ccccc2)c1)NO	79	> 10	Non-Toxic	54	4.8	Non-Toxic	> 30		inactive		
COc1cccc(CCCCCCCCCCCC(=O)NO)c1	157	> 10		104	0.7	Non-Toxic	> 30		inactive	25	
Nc1ccccc1NC(=O)CCCCCCCCCCCc1cccc(O)c1	145	> 10	Non-Toxic	58	7.2	Non-Toxic	> 30		inactive		
O=C(CCCCCCCCCCCc1cccc(O)c1)NO	151	> 10	Non-Toxic	~100	5.1	Non-Toxic	> 30	Dose-Dependent Effect			1.01
Nc1ccccc1NC(=O)CCCCCCCCCCCc1cccc(OC(=O)c2ccccc2)c1	> 200	> 10	Non-Toxic	> 100	8.5	Non-Toxic	> 30		inactive		
O=C(Cn1ccnc1[N+](=O)[O-])NCc1ccccc1 [BENZNIDAZOLE]	> 200	2.63									
C[C@@H]1[C@H](O)[C@@H](C)/C=C/C=C/C=C/C=C/C=C/C=C/C=C/[C@H](O[C@@H]2O[C@H](C)[C@@H](O)[C@H](N)[C@@H]2O)C[C@@H]2O[C@](O)(C[C@@H](O)C[C@@H](O)[C@H](O)CC[C@@H](O)C[C@@H](O)CC(=O)O[C@H]1C)C[C@H](O)[C@H]2C(=O)O [AMPHOTERICIN B]				0.15							
COc1cccc(CCCCCCCCCCCC(=O)Nc2ccccc2N)c1	> 200	> 10	Non-Toxic	> 100	14.4	Non-Toxic			inactive		
Nc1ccccc1NC(=O)CCCCCCCCCCCc1cccc(OCc2ccccc2)c1	> 200	> 10	Non-Toxic	> 100	78.3	Non-Toxic	> 30		inactive		
N=C(N)c1ccc(OCCCCCOc2ccc(C(=N)N)cc2)cc1 [PENTAMIDINE]				1.3	0.021						
CCCCCCCCCCCCCCCCOP(=O)([O-])OCC[N+](C)(C)C [MILTEFOSINE]							1.38				
